Legend:
bone metastasis = assay: Clinical cases: bone metastasis marker 1CTP; assay type: in vivo, human; conditions: Example 1, prostate cancer and ischial bone metastasis; Iressa added to NITC
Text: Effects of inhibiting bone metastasis were confirmed by the variation of 1CTP which is a bone metastasis marker. 1CTP has been practically used as a specific marker for bone resorption and there is, for example, 1CTP kit supplied by Orion (Clin. Chem. 39: 635-640, 1993). The kit uses a decalcified human thigh bone, which is degraded and purified in vitro by a purified bacterial collagenase, as an antigen (1CTP), to immunize a rabbit to produce an antibody, and the antigen is labeled with ^125I to make competitive radioimmunoassay (RIA). Its measuring sensitivity is 0.5 ng/ml or less and the measurement is possible to at least 50 ng/ml. Further, the mean value in blood level of 287 cases from 25-year old to 72-year old is 3.00±1.12 ng/ml (average±S.D.). 1CTP in blood has shown abnormal values in various metabolic bone diseases such as bone metastasis and hyperparathyroidism by now, and further has also been recognized to correlate with therapeutic process. The kit to measure 1CTP is a known clinical diagnosis one, and there is a RIA kit, pyridinoline 1CTP “Chugai” manufactured by Chugai Diagnostics Science Co., Ltd. Specifically, it is a radioimmunoassay reagent using ^125I as a label. However, other well known reagents such as enzyme immunoassay reagent using an enzyme labeling and fluorescence immunoassay reagent using a fluorescent substance can of course be applied. […]

prostate cancer = assay: Clinical cases: prostate cancer markers PSA and PAP; assay type: in vivo, human; conditions: Example 1, prostate cancer and ischial bone metastasis; Iressa added to NITC
Description: Abbreviations expressed were based on each general expression way.
(§1) A prostate cancer patient having been diagnosed as ischial bone metastasis received the hormone therapy of Casodex and Leuplin. NITC was started on Jun. 11, 200X. […] On Sep. 18, 200X, severe low back pain and left hip joint and hip (ischial bone metastasis) pains were appeared, so morphine (MS Contin 40 mg/day) was used. From Oct. 29, 200X, Iressa 1T (250 mg/day) was started to use. Two months after the administration of Iressa, as the pains in low back, left hip joint and hip were alleviated, the administration of MS Contin decreased to 20 mg/day.
(§2) From Jul. […] From Aug. 17, 200X, Iressa 1T (250 mg/day) was initiated. […] Currently, Iressa is only temporarily and orally administered as a painkiller, when pain appears.

[1] = system: non-small cell lung cancer and prostate cancer; conditions: clinical data; cited from earlier work
bone metastasis pain = assay: Clinical cases: pain from bone metastasis; assay type: in vivo, human; conditions: for generalized bone pain: morphine 240 mg/day, Leuplin hormone therapy, Iressa 250 mg/day
Description: as §1, §2

Row | Compound | 1CTP (bone metastasis marker) (bone metastasis) | PSA and PAP (prostate cancer markers) (prostate cancer) | CR (complete remission) [1] | pains in low back, left hip joint and hip (bone metastasis pain; Example 1, two months after the administration of Iressa 250 mg/day) | effect as painkiller compared with morphine (bone metastasis pain; Example 2) | pains after dose reduction (bone metastasis pain; Example 2, Iressa decreased to 250 mg/alternate day and 250 mg/three days) | generalized bone pain (bone metastasis pain; Example 2)
1 | COc1cc2ncnc(Nc3ccc(F)c(Cl)c3)c2cc1OCCCN1CCOCC1 [Iressa] | the increase of 1CTP also terminated, showing a tendency to decrease | kept decreasing significantly | almost nothing | alleviated | stronger effect than morphine | pains disappeared | alleviated significantly
2 | CCNC(=O)[C@@H]1CCCN1C(=O)[C@H](CCCNC(=N)N)NC(=O)[C@H](CC(C)C)NC(=O)[C@@H](CC(C)C)NC(=O)[C@H](Cc1ccc(O)cc1)NC(=O)[C@H](CO)NC(=O)[C@H](Cc1c[nH]c2ccccc12)NC(=O)[C@H](Cc1c[nH]cn1)NC(=O)[C@@H]1CCC(=O)N1 [Leuplin] | – | – | – | – | – | – | the pain was not weakened
3 | CN1CC[C@]23c4c5ccc(O)c4O[C@H]2[C@@H](O)C=C[C@H]3[C@H]1C5 [morphine] | – | – | – | – | – | – | could not alleviate the pain

Source: patent publication US20070155693A1, “Inhibitor of cancer bone metastasis” (ORIENT CANCER THERAPY CO., LTD., priority 2004, published 2007)
